ChEMBL document CHEMBL4321784, “Inhibiting Hedgehog: An Update on Pharmacological Compounds and Targeting Strategies” (J Med Chem, 2019)
Each block holds one molecule with its values, some of them ahead of it.

Columns and labels:
Format in all cases: cell-based
[1] = target: T1, Protein-cysteine N-palmitoyltransferase HHAT (Homo sapiens, UniProt Q5VTY9); test: Inhibition of HA/FLAG/His-tagged HHAT (unknown origin) expressed in 293FT cells assessed as enzyme-mediated sonic hedgehog palmitoylation incubated for 20 mins followed by [125I]iodo-palmitoyl CoA and Shh biotinylated peptide and measured after 1 hr by Scintillation proximity assay
T1 sequence (Q5VTY9 whole entry, the tested form may be a part): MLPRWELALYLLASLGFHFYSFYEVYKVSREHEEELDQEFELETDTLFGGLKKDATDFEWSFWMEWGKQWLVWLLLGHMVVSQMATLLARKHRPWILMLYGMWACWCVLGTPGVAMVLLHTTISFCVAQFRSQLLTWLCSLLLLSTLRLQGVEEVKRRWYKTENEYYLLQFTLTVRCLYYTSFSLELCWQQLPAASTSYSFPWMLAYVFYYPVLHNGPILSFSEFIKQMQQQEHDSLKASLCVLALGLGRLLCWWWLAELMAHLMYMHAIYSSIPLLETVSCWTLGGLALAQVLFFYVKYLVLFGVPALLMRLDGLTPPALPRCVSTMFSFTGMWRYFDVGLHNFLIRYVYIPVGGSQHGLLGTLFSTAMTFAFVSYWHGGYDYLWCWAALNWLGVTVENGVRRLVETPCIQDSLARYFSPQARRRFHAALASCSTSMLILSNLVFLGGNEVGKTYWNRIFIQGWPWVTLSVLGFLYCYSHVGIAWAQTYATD

[2] = target: T1, Protein-cysteine N-palmitoyltransferase HHAT; test: Inhibition of 3C-FLAG/His8-tagged human HHAT expressed in HEK293 cells assessed as reduction in enzyme-mediated sonic hedgehog (1 to 11 residues) palmitoylation by click-ELISA method
[3] = target: Zinc finger protein GLI1/GLI2 (Mus musculus, UniProt P47806+Q0VGT2); test: Inhibition of GLI1/GLI2 in mouse Shh Light2 cells assessed as reduction in endogenous hedgehog signalling in presence of Smo agonist SAG by luciferase reporter gene assay
[4] = Inhibition of mouse Smo A1 mutant expressed in mouse Shh Light2 cells assessed as reduction in hedgehog pathway activation incubated for 30 hrs by luminescence assay
[5] = target: Sonic hedgehog protein (Mus musculus, UniProt Q62226); test: Inhibition of sonic hedgehog signaling in mouse Shh Light2 cells after […] by Bright-Glo luciferase assay
Sequence of Sonic hedgehog protein (Q62226 25-198 limits assumed): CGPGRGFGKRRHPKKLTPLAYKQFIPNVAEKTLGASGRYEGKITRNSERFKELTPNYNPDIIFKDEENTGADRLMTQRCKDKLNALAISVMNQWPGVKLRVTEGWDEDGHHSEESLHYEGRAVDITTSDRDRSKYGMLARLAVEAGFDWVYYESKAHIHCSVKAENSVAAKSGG

Compound: c1cc(-c2sc(-c3ccncc3)c(-c3ccncc3)c2-c2ccncc2)ccn1
IC50 [3]: 5000 nM

Compound: CCC(C)n1ncn(-c2ccc(N3CCN(c4ccc(OCC5COC(Cn6cncn6)(c6ccc(Cl)cc6Cl)O5)cc4)CC3)cc2)c1=O (stereo unspecified) [ITRACONAZOLE]
IC50 [4]: 800 nM

Compound: O=C(C[C@@H]1C/C=C/CCC(=O)O[C@H](c2ccccc2)CNC1=O)NCc1ccc(Cl)cc1 [ROBOTNIKININ]
IC50 [5]: 4000 nM

Second part, the molecule after the results:

IC50 [1]: 850 nM
Compound: CCC(C)CNCC(=O)N1CCc2sccc2C1COc1cccc(C)c1 (stereo unspecified)

IC50 [2]: 200 nM
Compound: CCC(C)CNCC(=O)N1CCc2sccc2C1c1cccc(C)n1 (stereo unspecified)

IC50 [3]: 5000 nM
Compound: CN(C)c1ccccc1CN1CCCN(Cc2ccccc2N(C)C)C1c1ccncc1
